# Assay results reported in paper PMC7792806, “Development of Second Generation Activity-Based Chemical Probes for Sirtuins” (Molecules, 2020).
# Key:
# SIRT1 = biological target: T1, SIRT1 (Homo sapiens, UniProt Q96EB6); experiment: Sirtuin inhibition assay (HPLC), SIRT1; type: biochemical; conditions: substrate p53K382Ac; 500 μM NAD+, 500 μM peptide, 10 μM sirtuin, pH 7.5, 37 °C
# T1 construct: Plasmids of SIRT1 (full length); made in house
# T1 sequence (Q96EB6 1-747): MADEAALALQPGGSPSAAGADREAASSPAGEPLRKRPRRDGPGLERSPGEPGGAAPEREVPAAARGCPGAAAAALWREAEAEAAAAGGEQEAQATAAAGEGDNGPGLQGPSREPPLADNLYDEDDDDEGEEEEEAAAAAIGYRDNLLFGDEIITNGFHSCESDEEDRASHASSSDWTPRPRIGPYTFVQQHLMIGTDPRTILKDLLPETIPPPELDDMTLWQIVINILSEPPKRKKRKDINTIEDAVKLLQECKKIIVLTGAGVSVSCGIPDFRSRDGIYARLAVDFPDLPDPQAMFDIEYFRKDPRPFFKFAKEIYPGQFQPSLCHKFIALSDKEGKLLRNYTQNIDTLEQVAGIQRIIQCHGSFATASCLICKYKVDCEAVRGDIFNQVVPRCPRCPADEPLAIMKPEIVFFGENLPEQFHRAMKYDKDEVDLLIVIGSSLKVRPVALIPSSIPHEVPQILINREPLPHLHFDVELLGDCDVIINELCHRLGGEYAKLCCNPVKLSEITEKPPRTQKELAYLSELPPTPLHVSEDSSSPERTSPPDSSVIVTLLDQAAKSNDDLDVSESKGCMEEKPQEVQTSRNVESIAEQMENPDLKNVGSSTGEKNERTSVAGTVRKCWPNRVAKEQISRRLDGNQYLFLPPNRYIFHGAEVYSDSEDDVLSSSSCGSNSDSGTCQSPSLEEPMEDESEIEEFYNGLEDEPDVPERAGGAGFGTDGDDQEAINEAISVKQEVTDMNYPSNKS
# Description: Plasmids of SIRT1 (full length), SIRT2 (38-356), SIRT3 (102-399), and SIRT5 (34-302) were generous gifts from Dr. Hening Lin (Cornell University, Ithaca, NY, USA). SIRT6 was a gift from Cheryl Arrowsmith (Addgene plasmid #28271). The proteins were expressed and purified according to previously published protocols. The identity of the protein was confirmed by tryptic digestion followed by LC-MS/MS analysis performed at the Vermont Genetic Network (VGN) Proteomics Facility. Protein concentrations were determined by Bradford assay (Thermo Fisher Scientific, Rockford, IL, USA).
# A typical reaction contained 500 μM NAD^+ and 500 μM peptide substrate (H3K9Ac for SIRT2, SIRT3 and SIRT6, p53K382Ac for SIRT1 and SIRT5) of varying concentrations of a small molecule probe in 100 mM phosphate buffer pH 7.5. The reactions were initiated by the addition of 10 μM of sirtuin and were incubated at 37 °C before being quenched by 8 μL of 10% TFA. The incubation time was controlled so that the conversion of substrate was less than 15%. The samples were then injected on an HPLC fitted to a Macherey-Nagel Nucleosil C18 column. NAD^+, NAM and AADPR (acetyl-ADP-ribose) peaks were resolved using a gradient of 0 to 20% methanol in 20 mM ammonium acetate. Chromatograms were analyzed at 260 nm. Reactions were quantified by integrating areas of peaks corresponding to NAD^+ and AADPR. Rates were plotted as a function of small molecule probe concentration, and points were fitted to the following equation:ν(%) = ν0(%) − [ν0(%)(10^x)/(10^x + IC50)](1) where ν(%) represents the turnover rate expressed as percent enzymatic activity remaining, and ν0(%) represents the uninhibited turnover rate expressed as an enzymatic activity of 100%. The variable x represents the log[probe] in nanomolar. IC50 values were derived from this equation.
# SIRT6H133Y = SIRT6H133Y (Homo sapiens, UniProt Q8N6T7, H133Y); experiment: Labeling of catalytically inactive mutant SIRT6H133Y; type: biochemical
# Description: (§1) Remarkably, probe 2C was also able to label individual sirtuin isoforms in cell lysates. HEK293 cells overexpressing human SIRT2 were lysed, and the lysate was subjected to the labeling by 10 μM probe 2C.
# (§2) A typical labeling experiment was performed as follows: in a 0.7 mL Eppendorf tube, purified recombinant human sirtuin (10 μM) was incubated with NAD^+ (500 μM) and activity-based probe at 37 °C for 10 min. The sample was transferred to a clear-bottom 96-well plate, placed on ice, and irradiated at 365 nm with a UV-lamp in a cold room. Subsequently, ingredients of the “click-chemistry” including azide-fluor 545, CuSO4, reducing agent (tris(2-carboxyethyl)phosphine, TCEP) and stabilizing agent (tris[(1-benzyl-1H-1,2,3-triazol-4-yl)methyl]amine, TBTA) were added, and the sample was gently agitated at 250 rpm on a microshaker at room temperature for 30 min. Then, the sample was resolved by SDS-PAGE. To […] the signal to noise ratio, the gel was destained to eliminate non-specific binding of free dyes. This was done in a mixture of methanol/distilled water/acetic acid (v/v/v = 4/5/1) at ambient temperature for 4 h. Then, destained gel was analyzed with in-gel fluorescence scanning using a Biorad ChemiDoc MP imager (excitation 532 nm, 580 nm cut-off filter and 30 nm band-pass). Finally, Coomassie blue staining was applied to provide loading control.
# SIRT6 = SIRT6 (Homo sapiens, UniProt Q8N6T7); experiment: Western blot of H3K9Ac in HEK293 cells; type: cell-based
# From the text: The ABPs structurally mimic acylated lysine substrates. However, the presence of substituents could potentially alter their cell permeability, cellular distribution, and target engagement ability. It is essential to determine if these probes are cell permeable and capable of inhibiting endogenous sirtuin activity. The sirtuin family of proteins are often referred to as the class III histone deacetylases (HDACs). Unlike class I and class II HDACs, which are Zn^2+-dependent, sirtuins are NAD^+-dependent. […] Similarly, other sirtuins may not be the only deacetylase of their endogenous substrates. Therefore, the inhibitory effect of the other ABPs may only become apparent when class I/II HADCs are inhibited at the same time. HEK293 cells were cultured in the presence of probe 2C and/or other HDAC inhibitors. Subsequently, the cell lysates were collected and probed for acetylated H3K9 (H3K9Ac), which is an endogenous substrate of SIRT6.
# The cell lysate was resolved on a 10% SDS-PAGE gel and transferred to Immobilon PVDF transfer membrane (Millipore, Burlington, MA, USA). The blot was blocked with 5% nonfat milk, probed with primary antibody targeting H3K9Ac (Sigma-Aldrich, St. Louis, MO, USA), H3 (Abcam, Cambridge, MA, USA), acetyllysine or CPS1 (Cell Signaling Technology, Beverly, MA, USA), washed with PBST, followed by incubation with anti-rabbit or anti-mouse HRP conjugated secondary antibody. Then, the signal was detected by SuperSignal West Pico Chemiluminescent substrate (Thermo Fisher Scientific, Rockford, IL, USA).
# [1] = biological target: T2, wild-type SIRT6 (wtSIRT6) (Homo sapiens, UniProt Q8N6T7); experiment: Labeling of wild-type SIRT6; type: biochemical
# T2 construct: host or cells: E. coli (inferred from b12)
# Description: as §1, §2
# SIRT6, sequence (Q8N6T7 whole entry): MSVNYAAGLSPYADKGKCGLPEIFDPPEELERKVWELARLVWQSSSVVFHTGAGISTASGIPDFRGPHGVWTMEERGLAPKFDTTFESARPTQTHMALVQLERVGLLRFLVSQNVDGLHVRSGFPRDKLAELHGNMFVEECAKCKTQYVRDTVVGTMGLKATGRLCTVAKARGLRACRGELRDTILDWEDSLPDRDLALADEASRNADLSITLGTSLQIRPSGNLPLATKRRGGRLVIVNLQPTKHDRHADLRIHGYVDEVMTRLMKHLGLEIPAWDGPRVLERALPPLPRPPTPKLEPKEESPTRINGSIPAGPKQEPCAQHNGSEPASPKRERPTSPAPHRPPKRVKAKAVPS
# T2 sequence (Q8N6T7 whole entry): as above
# SIRT6H133Y, sequence (Q8N6T7 whole entry H133Y, canonical isoform): as the sequence (Q8N6T7 whole entry) above, with H133Y counted along it
SMILES,IC50 (SIRT1),labeling of SIRT6H133Y (SIRT6H133Y),"H3K9Ac level, combination with TSA (SIRT6; combined with TSA)","H3K9Ac level, treatment alone (SIRT6; single agent)",labeling of wtSIRT6 [1]
C#CCCCC1(CCC(=O)N[C@@H](CCCCNC(=S)CCC(=O)O)C(=O)N[C@@H](C)C(=O)N[C@@H](C)C(=O)OC)N=N1 [Probe 2B],> 2000 µM,–,–,–,–
C#CCCCC1(CCC(=O)N[C@@H](CCCCNC(=S)CCCCCCCCCCCCC)C(=O)N[C@@H](C)C(=O)N[C@@H](C)C(=O)OC)N=N1 [Probe 2C],–,failed to label,significantly elevated level of H3K9Ac,did not cause any appreciable changes,concentration-dependent labeling of wild-type SIRT6
